Experiments:
DPP-IV = DPP-IV (Homo sapiens, UniProt P27487); conditions: result in words; cited from earlier work
[1] = result in words; cited from earlier work
[2] = Stability test: experiments on influencing factors (light irradiation, high temperature, high humidity); type: physicochemical; conditions: for stability: result in words
From the text: Suitable amounts of the crystalline Form A obtained in Example 2 and the crystalline Form B obtained in Example 3 were taken to carry out experiments on influencing factors according to the methods described in the Chinese Pharmacopoeia, 2010 edition, Part II, Appendix.

Powder fluidity = type: physicochemical; conditions: result in words
[3] = High-humidity Test 92.5% RH, 5 days
[4] = High-humidity Test 92.5% RH, 10 days
[5] = High-temperature Test 40° C., 5 days
[6] = High-temperature Test 40° C., 10 days
[7] = High-temperature Test 60° C., 5 days, 60 °C
[8] = High-temperature Test 60° C., 10 days, 60 °C
[9] = Light Irradiation Test 4500Lux, 5 days
[10] = Light Irradiation Test 4500Lux, 10 days
[11] = High-temperature Test 60° C., 5 days

Sequence of DPP-IV (P27487 whole entry, species assumed): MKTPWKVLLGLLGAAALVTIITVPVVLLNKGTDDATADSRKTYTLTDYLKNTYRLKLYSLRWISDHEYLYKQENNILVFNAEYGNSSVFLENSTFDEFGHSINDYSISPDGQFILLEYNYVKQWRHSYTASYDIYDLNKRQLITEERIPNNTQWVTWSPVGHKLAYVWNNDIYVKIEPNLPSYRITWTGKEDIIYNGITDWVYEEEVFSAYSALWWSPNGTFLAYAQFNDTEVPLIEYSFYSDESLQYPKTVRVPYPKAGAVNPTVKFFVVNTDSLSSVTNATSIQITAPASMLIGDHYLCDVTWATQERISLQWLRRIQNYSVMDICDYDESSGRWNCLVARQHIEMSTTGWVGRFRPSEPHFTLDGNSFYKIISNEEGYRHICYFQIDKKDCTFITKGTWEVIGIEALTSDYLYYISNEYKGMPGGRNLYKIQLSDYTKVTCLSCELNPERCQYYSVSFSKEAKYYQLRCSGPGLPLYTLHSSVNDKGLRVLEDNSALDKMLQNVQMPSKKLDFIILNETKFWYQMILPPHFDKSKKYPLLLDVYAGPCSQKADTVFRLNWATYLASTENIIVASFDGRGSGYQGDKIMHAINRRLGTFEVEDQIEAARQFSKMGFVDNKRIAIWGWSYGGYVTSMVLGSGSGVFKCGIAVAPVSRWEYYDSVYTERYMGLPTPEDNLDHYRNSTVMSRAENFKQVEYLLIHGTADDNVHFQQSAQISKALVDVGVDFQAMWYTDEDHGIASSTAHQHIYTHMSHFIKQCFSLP

Row | Compound | Relative Substances Main Peak % ([2]; 0 day) [%] | Relative Substances Maximum Single Impurity % ([2]; 0 day) [%] | Relative Substances Main Peak % [2, 3] [%] | Relative Substances Maximum Single Impurity % [2, 3] [%] | Relative Substances Main Peak % [2, 4] [%] | Relative Substances Maximum Single Impurity % [2, 4] [%] | Relative Substances Main Peak % [2, 5] [%] | Relative Substances Maximum Single Impurity % [2, 5] [%] | Relative Substances Main Peak % [2, 6] [%] | Relative Substances Maximum Single Impurity % [2, 6] [%] | Relative Substances Main Peak % [2, 9] [%] | Relative Substances Maximum Single Impurity % [2, 9] [%] | Relative Substances Main Peak % [2, 10] [%] | Relative Substances Maximum Single Impurity % [2, 10] [%] | stability [2] | powder fluidity (Powder fluidity) | also measured
1 | CC#CCn1c(N2CCC[C@@H](N)C2)nc2c1c(=O)n(Cc1ccc3nsnc3n1)c(=O)n2C [Compound 7] |  |  |  |  |  |  |  |  |  |  |  |  |  |  |  |  | inhibitory activity against DPP-IV (DPP-IV): very good inhibitory activity; half-life in vivo [1]: suitable half-life in vivo; metabolic level in vivo [1]: very good metabolic level in vivo
2 | CC#CCn1c(N2CCC[C@@H](N)C2)nc2c1c(=O)n(Cc1ccc3nsnc3n1)c(=O)n2C [crystalline Form B] | 99.3 | 0.18 | 99.36 | 0.17 | 99.4 | 0.16 | 99.38 | 0.17 | 99.44 | 0.15 | 98.98 | 0.26 | 98.2 | 0.58 | excellent stability | good powder fluidity | Relative Substances Main Peak % [2, 7]: 99.33%; Relative Substances Maximum Single Impurity % [2, 7]: 0.2%; Relative Substances Main Peak % [2, 8]: 99.12%; Relative Substances Maximum Single Impurity % [2, 8]: 0.24%
3 | CC#CCn1c(N2CCC[C@@H](N)C2)nc2c1c(=O)n(Cc1ccc3nsnc3n1)c(=O)n2C [crystalline Form A] | 98.78 | 0.56 | 98.79 | 0.61 | 98.84 | 0.61 | 98.72 | 0.60 | 98.42 | 0.61 | 98.09 | 0.51 | 96.21 | 0.70 | excellent stability | good powder fluidity | Relative Substances Main Peak % [2, 11]: 98.72%; Relative Substances Maximum Single Impurity % [2, 11]: 0.60%; Relative Substances Maximum Single Impurity % ([2]; High-temperature Test 60° C., 10 days): 0.61%; Relative Substances Main Peak % ([2]; High-temperature Test 60° C., 10 days, 60 °C high-temperature test): 98.74%
